How the values were obtained:
[1] = molecular target: Thrombin and coagulation factor X (Homo sapiens) (UniProt P00734+P00742); experiment: Selectivity ratio as Ki of factor IIA / Ki of factor Xa; format: protein assay
Homo sapiens = organism: Homo sapiens; experiment: Concentration at which compound inhibited coagulation of human plasma in vitro, doubling activated partial thromboplastin time (APTT); format: functional, cell-free
Prothrombin = Prothrombin (Homo sapiens, UniProt P00734); experiment: Inhibition of Coagulation factor IIa
[2] = Selectivity ratio as Ki of Trypsin / Ki of factor Xa
[3] = Selectivity ratio as Ki of Serine proteases tissue plasminogen activator / Ki of factor Xa
[4] = Selectivity ratio as Ki of Activated protein C / Ki of factor Xa
Rattus norvegicus [5] = organism: Rattus norvegicus; experiment: Concentration at which compound inhibited coagulation of rat plasma in vitro, doubling activated partial thromboplastin time (APTT); format: functional, cell-free
Serine protease 1 = Serine protease 1 (Homo sapiens, UniProt P07477); experiment: In vitro inhibitory potency against Trypsin
Chain of Serine protease 1 (P07477 whole entry): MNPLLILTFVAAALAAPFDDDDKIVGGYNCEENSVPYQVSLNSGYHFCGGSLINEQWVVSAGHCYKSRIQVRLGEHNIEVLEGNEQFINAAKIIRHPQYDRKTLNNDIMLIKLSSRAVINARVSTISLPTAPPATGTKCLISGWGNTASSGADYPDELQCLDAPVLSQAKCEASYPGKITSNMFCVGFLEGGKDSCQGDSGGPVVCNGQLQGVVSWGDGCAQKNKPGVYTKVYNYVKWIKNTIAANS

Coagulation factor X = Coagulation factor X (Homo sapiens, UniProt P00742); experiment: Inhibition of Coagulation factor Xa
Chain of Coagulation factor X (P00742 41-179 limits assumed): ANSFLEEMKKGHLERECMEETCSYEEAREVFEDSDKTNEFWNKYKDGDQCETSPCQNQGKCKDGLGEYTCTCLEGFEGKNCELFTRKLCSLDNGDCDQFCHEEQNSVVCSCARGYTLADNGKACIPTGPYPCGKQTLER
Chain of Coagulation factor X (P00742 235-488 limits assumed): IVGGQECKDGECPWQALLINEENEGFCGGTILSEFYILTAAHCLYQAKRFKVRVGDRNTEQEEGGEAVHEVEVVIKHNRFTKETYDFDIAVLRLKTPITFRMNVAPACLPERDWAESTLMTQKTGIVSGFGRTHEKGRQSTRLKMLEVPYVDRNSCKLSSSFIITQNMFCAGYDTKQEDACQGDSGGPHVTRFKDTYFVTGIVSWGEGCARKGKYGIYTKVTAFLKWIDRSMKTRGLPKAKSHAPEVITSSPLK

Rattus norvegicus [6] = organism: Rattus norvegicus; experiment: Tested for maximal effective dose in ferrous-chloride induced arterial thrombosis by bolus infusion; format: functional; conditions: read-out: MED
Rattus norvegicus [7] = experiment: Tested for maximal effective dose in ferrous-chloride induced arterial thrombosis by intravenous maintenance infusion; format: functional

Chain of Thrombin and coagulation factor X (Homo sapiens) (P00742 whole entry, looked up, other chains not shown): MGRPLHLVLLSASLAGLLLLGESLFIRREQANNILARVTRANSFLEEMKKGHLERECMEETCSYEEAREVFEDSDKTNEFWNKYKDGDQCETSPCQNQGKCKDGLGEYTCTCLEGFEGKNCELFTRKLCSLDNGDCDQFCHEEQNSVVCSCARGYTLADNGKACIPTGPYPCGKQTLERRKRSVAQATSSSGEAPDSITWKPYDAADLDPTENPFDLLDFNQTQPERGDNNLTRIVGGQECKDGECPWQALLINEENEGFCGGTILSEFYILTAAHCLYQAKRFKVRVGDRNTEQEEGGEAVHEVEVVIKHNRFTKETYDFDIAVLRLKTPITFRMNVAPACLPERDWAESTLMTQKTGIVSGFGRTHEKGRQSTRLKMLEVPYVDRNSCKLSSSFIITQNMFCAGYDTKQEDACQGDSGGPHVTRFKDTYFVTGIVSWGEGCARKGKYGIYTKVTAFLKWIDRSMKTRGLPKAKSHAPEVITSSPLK

Row | Structure (SMILES) | Ki (Prothrombin) | Ki (Serine protease 1) | Ki (Coagulation factor X) | also measured
1 | COC(=O)[C@H](Cc1cccc(C(=N)N)c1)[C@@H](C)NC(=O)c1ccc(-c2ccccc2)cc1 | 3250 nM | – | – | Ratio [1]: 610; Concentration (Homo sapiens): 3.9 µM; Ratio [2]: 13; Ratio [3]: > 1000; Ratio [4]: > 1000; Concentration (Rattus norvegicus [5]): 5.1 µM
2 | COC(=O)[C@H](Cc1cccc(C(=N)N)c1)[C@@H](C)NC(=O)c1ccc(-c2cccc[n+]2[O-])cc1 | > 4000 nM | 36 nM | 0.58 nM | –
3 | COC(=O)[C@H](Cc1cccc(C(=N)N)c1)[C@@H](C)NC(=O)c1ccc(-c2ncc[nH]2)cc1 | > 4000 nM | 490 nM | 46 nM | –
4 | COC(=O)[C@H](Cc1cccc(C(=N)N)c1)[C@@H](C)NC(=O)c1ccc(-c2ccc[n+]([O-])c2)cc1 | > 4000 nM | 130 nM | 2 nM | –
5 | COC(=O)[C@H](Cc1cccc(C(=N)N)c1)[C@@H](C)NC(=O)c1ccc(-c2ccc[n+](C)c2)cc1 | > 4000 nM | 52 nM | 0.8 nM | –
6 | COC(=O)[C@H](Cc1cccc(C(=N)N)c1)[C@@H](C)NC(=O)c1ccc(-c2ccccn2)cc1 | 2800 nM | 51 nM | 0.89 nM | –
7 | COC(=O)[C@H](Cc1cccc(C(=N)N)c1)[C@@H](C)NC(=O)c1ccc(-c2cccc[n+]2C)cc1 | > 4000 nM | 36 nM | 1.2 nM | –
8 | COC(=O)[C@H](Cc1cccc(C(=N)N)c1)[C@@H](C)NC(=O)c1ccc(-c2cc[n+](C)cc2)cc1 | > 4000 nM | 168 nM | 2.7 nM | –
9 | COC(=O)[C@H](Cc1cccc(C(=N)N)c1)[C@@H](C)NC(=O)c1ccc(-c2cc[n+]([O-])cc2)cc1 [OTAMIXABAN] | > 4000 nM | 301 nM | – | Ratio [1]: > 10000; minimal effective dose (Rattus norvegicus [6]): 0.05 mg/kg; Concentration (Homo sapiens): 0.41 µM; Ratio [2]: 750; Ratio [3]: > 10000; Ratio [4]: > 10000; MED (Rattus norvegicus [7]): 5 µg/min/kg; Concentration (Rattus norvegicus [5]): 0.8 µM
10 | COC(=O)[C@H](Cc1cccc(C(=N)N)c1)[C@@H](C)NC(=O)c1ccc(-c2c[nH]cn2)cc1 | > 4000 nM | 170 nM | 3 nM | –
11 | COC(=O)[C@H](Cc1cccc(C(=N)N)c1)[C@@H](C)NC(=O)c1ccc(-n2ccnc2)cc1 | > 4000 nM | > 2900 nM | 6 nM | –
12 | COC(=O)[C@H](Cc1cccc(C(=N)N)c1)[C@@H](C)NC(=O)c1ccc(-c2cccnc2)cc1 | 4000 nM | 368 nM | 8 nM | –
13 | COC(=O)[C@H](Cc1cccc(C(=N)N)c1)[C@@H](C)NC(=O)c1ccc(-c2ccncc2)cc1 | > 4000 nM | 76 nM | 0.5 nM | –

— ChEMBL document CHEMBL1135155, “Optimization of the beta-aminoester class of factor Xa inhibitors. Part 2: Identification of FXV673 as a potent and selective inhibitor with excellent In vivo anticoagulant activity” (Bioorg Med Chem Lett, 2002)
